{
  "source": "paper PMC8689225",
  "about": "“Cardiac ryanodine receptor N-terminal region biosensors identify novel inhibitors via FRET-based high-throughput screening” (The Journal of Biological Chemistry, 2021)",
  "key": {"human RyR2": {"molecular_target": "T1, human RyR2 (Homo sapiens, UniProt Q92736)", "T1 construct": "expressed in transfected cells; host or cells: HEK293, transient co-transfection with mCer-SERCA2a and R-CEPIA1er", "test": "[Ca2+]ER load in permeabilized HEK293 cells expressing GFP-hRyR2, mCer-SERCA2a, R-CEPIA1er", "type": "cell-based", "details": "compared to vehicle", "description": "The method for measuring of [Ca^2+]ER load-leak balance in HEK293 cells was previously described ([48]). Briefly, HEK293 cells were transiently cotransfected with plasmids encoding GFP-hRyR2, mCer-SERCA2a, and R-CEPIA1er cDNAs. After 48 h of protein expression, transfected cells were used for the confocal experiments. Before each measurement, cells were washed with a solution containing (in mM): 150 K-aspartate, 0.25 MgCl2, 0.1 EGTA, 10 HEPES, pH 7.2. Then, the cellular plasma membranes were permeabilized with 0.005% saponin dissolved in the experimental solution containing (in mM): K-aspartate 100; KCl 15; KH2PO4 5; MgATP 5; EGTA 0.35; CaCl2 0.22; MgCl2 0.75; HEPES 10; dextran (MW: 40,000) 2%, pH 7.2. Free [Ca^2+] and [Mg^2+] were set at 100 nM and 1 mM respectively. After 3 min of saponin incubation, the permeabilized cells were perfused with saponin-free experimental solution.\nChanges in [Ca^2+]ER load-leak balance in permeabilized HEK293 cells were monitored using a laser scanning confocal microscope (Radiance 2000 MP, BioRad) equipped with a 40× oil objective lens (N.A. =1.3). […]\nCells were perfused with the experimental solution for 3 min to ensure a steady [Ca^2+]ER signal. […] Fmax was determined upon application of 2 μM ionomycin and 10 mM Ca^2+. Changes in [Ca^2+]ER were calculated according to [Ca^2+]ER = (F−Fmin)/(Fmax−Fmin)."}, "[1]": {"test_system": "intact mouse ventricular cardiomyocytes", "test": "Ca2+ transients in intact ventricular cardiomyocytes paced at 1 Hz", "type": "cell-based", "description": "Mouse ventricular cardiomyocytes were isolated enzymatically from hearts of male C57BL/6J mouse (10–12 weeks old, Jackson Laboratory) as previously described with minor modifications ([66]). Briefly, mice were injected with heparin (500 U/kg body weight) and anesthetized with isoflurane (2 to 5%) to a verified deep surgical plane, whereupon the heart was excised, resulting in euthanasia by exsanguination. Hearts were excised and retrogradely perfused with constant flow on a Langendorff apparatus (37 °C) with Ca^2+-free normal Tyrode’s solution, gassed with 100% O2. Collagenase type II (Worthington Biochemical Co) and protease type XIV (Sigma-Aldrich) were used for enzymatic digestion. […]\nCa^2+ activity was imaged via confocal microscopy (Bio-Rad, Radiance 2100, 40× objective) in the line scan mode (166 lines/s; ex 488 nm, em >505 nm). Ca^2+ sparks were recorded from ventricular cardiomyocytes permeabilized with saponin (50 μg/ml) for 1 min in internal solution containing (in mM) 10 HEPES, 1 EGTA, 1 free MgCl2 (with free [Ca^2+] adjusted to 50 nM using MaxChelator), 120 K-aspartate, 10 reduced glutathione, 5 ATP, 5 phosphocreatine di-Na, creatine phosphokinase 5 U/ml, and dextran (MW: 40,000) 8% at pH 7.20. […] Ca^2+ spark parameters were analyzed over a 10 s period from each line scan recording. […]"}, "RyR1": {"molecular_target": "T2, RyR1 (Sus scrofa, UniProt P16960)", "T2 construct": "from tissue; host or cells: porcine longissimus dorsi muscle, heavy SR vesicles", "T2 sequence (P16960 whole entry)": "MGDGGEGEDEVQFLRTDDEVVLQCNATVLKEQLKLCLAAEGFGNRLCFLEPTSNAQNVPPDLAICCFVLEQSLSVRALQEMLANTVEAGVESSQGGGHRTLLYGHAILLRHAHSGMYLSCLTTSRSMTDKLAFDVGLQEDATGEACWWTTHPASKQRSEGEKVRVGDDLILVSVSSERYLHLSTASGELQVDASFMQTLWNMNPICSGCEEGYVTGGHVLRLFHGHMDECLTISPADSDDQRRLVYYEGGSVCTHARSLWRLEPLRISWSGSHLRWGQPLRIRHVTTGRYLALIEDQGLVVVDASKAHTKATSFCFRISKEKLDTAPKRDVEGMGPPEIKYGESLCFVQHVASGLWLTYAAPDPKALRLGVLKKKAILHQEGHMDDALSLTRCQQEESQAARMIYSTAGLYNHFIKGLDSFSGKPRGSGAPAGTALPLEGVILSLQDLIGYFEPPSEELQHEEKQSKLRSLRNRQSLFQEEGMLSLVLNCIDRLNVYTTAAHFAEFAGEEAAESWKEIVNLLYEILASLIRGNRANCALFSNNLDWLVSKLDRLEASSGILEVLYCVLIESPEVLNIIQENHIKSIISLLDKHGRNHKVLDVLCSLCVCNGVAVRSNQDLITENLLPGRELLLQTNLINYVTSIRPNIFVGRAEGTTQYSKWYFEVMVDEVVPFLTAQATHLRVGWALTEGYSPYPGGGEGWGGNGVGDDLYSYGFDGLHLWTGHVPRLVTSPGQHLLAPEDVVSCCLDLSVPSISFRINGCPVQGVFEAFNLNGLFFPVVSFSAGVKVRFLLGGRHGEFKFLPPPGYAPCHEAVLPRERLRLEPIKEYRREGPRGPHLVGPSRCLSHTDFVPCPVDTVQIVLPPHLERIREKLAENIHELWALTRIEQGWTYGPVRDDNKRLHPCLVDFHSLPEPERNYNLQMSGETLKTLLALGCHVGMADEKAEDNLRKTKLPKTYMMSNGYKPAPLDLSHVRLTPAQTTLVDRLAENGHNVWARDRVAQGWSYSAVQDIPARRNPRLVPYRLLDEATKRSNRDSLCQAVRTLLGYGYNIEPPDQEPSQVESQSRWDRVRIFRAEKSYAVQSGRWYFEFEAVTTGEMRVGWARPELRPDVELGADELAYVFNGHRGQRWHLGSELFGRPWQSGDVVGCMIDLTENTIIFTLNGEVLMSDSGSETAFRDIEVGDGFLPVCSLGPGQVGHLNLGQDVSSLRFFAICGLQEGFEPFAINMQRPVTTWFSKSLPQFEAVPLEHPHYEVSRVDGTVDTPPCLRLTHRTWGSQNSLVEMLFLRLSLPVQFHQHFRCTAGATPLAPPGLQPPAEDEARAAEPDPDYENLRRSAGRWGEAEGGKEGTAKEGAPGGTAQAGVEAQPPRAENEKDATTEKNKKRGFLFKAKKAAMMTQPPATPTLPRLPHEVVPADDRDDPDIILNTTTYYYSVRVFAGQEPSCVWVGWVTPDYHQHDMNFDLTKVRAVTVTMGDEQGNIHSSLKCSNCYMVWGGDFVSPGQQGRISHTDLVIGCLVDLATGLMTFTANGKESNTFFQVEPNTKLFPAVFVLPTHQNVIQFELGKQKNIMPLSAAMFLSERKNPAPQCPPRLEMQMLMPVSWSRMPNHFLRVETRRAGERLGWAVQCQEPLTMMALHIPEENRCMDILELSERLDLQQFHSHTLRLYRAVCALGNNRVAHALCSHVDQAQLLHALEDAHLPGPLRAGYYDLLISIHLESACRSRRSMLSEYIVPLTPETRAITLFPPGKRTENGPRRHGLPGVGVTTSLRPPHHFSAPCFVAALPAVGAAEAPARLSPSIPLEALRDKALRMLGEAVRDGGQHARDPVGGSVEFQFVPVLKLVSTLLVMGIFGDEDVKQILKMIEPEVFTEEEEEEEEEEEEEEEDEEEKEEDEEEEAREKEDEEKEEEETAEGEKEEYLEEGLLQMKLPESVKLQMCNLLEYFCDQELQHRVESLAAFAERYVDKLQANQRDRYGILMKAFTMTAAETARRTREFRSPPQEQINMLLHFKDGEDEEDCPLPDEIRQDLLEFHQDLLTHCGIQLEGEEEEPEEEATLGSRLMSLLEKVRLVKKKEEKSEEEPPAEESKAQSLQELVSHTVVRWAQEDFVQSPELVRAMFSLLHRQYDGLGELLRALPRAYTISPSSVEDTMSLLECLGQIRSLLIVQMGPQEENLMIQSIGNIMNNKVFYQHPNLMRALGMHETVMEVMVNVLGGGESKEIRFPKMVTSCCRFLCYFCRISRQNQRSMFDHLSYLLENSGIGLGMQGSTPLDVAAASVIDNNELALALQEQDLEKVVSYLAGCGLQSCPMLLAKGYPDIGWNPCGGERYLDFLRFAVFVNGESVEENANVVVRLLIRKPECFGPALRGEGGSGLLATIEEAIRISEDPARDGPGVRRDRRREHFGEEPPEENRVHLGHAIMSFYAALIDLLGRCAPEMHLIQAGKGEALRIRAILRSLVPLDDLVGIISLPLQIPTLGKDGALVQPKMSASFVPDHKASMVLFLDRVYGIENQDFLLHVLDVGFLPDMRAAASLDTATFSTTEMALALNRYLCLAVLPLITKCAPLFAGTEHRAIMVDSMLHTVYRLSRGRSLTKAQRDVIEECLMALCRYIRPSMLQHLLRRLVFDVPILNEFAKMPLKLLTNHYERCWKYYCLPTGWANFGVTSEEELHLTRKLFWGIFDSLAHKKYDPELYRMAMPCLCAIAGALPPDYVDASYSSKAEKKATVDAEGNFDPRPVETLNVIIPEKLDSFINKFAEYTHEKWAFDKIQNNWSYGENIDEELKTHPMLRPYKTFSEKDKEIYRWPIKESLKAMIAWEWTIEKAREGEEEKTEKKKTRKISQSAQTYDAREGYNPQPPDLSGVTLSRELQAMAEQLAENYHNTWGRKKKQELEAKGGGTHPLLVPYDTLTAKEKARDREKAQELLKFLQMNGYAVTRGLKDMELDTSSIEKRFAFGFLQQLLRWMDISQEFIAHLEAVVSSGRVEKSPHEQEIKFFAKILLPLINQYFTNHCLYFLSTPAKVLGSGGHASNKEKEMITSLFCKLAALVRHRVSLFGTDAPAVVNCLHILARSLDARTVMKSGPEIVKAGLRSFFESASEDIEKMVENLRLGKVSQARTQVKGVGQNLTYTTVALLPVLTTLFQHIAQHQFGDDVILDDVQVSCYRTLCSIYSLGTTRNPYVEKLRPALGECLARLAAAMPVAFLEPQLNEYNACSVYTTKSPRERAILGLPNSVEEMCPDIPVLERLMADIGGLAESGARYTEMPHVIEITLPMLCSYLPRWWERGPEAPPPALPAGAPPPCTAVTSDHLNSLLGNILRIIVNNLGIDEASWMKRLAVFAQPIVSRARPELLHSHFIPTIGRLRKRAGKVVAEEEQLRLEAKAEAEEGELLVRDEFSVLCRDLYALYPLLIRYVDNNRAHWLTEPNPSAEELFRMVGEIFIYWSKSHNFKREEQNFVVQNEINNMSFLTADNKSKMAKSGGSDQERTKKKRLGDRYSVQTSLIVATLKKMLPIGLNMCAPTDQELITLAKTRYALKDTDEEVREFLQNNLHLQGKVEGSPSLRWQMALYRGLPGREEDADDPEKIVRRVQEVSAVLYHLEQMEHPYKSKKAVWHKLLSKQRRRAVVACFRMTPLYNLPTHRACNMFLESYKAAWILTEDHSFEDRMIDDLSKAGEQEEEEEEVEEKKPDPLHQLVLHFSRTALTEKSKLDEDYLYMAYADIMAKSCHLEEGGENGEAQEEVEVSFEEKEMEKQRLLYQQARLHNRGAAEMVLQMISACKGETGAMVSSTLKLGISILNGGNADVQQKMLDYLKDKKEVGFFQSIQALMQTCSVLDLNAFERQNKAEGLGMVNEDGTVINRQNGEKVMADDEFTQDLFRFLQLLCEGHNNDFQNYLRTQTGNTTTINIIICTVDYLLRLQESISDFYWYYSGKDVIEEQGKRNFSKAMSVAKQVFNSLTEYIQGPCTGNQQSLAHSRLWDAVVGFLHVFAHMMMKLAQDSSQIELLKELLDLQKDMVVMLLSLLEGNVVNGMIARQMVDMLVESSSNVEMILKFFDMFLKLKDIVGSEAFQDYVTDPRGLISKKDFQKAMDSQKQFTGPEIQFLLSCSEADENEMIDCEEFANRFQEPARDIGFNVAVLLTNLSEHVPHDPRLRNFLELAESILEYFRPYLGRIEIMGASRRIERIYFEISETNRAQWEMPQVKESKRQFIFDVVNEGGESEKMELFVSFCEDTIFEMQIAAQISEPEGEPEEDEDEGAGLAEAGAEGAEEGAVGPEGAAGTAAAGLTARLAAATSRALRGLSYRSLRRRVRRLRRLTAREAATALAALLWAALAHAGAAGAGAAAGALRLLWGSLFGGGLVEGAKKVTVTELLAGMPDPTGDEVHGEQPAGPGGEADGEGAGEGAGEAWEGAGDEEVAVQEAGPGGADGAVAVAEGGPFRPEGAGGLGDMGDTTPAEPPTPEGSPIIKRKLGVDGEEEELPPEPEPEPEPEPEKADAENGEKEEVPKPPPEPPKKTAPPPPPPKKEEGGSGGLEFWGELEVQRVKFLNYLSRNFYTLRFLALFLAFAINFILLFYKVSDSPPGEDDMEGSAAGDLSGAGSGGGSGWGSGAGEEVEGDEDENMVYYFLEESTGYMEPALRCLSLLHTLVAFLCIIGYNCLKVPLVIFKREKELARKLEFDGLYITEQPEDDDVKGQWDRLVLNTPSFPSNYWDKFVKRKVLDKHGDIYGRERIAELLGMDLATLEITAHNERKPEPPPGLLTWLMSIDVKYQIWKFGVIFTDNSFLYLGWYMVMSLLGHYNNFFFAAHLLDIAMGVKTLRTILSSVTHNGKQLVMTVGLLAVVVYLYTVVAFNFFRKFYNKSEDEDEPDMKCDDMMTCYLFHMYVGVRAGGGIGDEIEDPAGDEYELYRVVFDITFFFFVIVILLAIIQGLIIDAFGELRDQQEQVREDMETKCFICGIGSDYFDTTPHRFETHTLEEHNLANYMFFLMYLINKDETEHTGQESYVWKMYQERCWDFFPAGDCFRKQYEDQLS", "test": "[3H]ryanodine binding to skeletal SR (HSR) vesicles", "type": "biochemical, pig", "details": "for EC50: Table S4, read-out: EC50, [3H]ryanodine binding, skeletal HSR", "description": "Crude sarcoplasmic reticulum membrane vesicles were isolated from porcine longissimus dorsi muscle and porcine cardiac left ventricle tissue by differential centrifugation of homogenized tissue, as established previously ([65]). Skeletal heavy SR (HSR) vesicles, which are enriched with RyR1, were isolated by fractionation of crude skeletal SR vesicles using a discontinuous sucrose gradient, in accordance with our published work ([65]). All vesicles were flash-frozen and stored at −80 °C.\nIn 96-well plates, skeletal SR membranes (HSR, 1 mg/ml) and cardiac SR membranes (CSR, 3 mg/ml) were preincubated with 1% DMSO or hit compound for 30 min at 22 °C in a solution containing 150 mM KCl, 5 mM GSH, 1 μg/ml Aprotinin/Leupeptin, 1 mM EGTA, and 65 μM or 1.02 mM CaCl2 (as determined by MaxChelator to yield 30 nM or 30 μM of free Ca^2+, respectively), 0.1 mg/ml of BSA, and 20 mM K-PIPES (pH 7.0). Nonspecific [^3H]ryanodine binding to SR was assessed by addition of 40 μM nonradioactively labeled ryanodine. Maximal [^3H]ryanodine binding was assessed by addition of 5 mM adenylyl-imidodiphosphate (AMP-PNP), and in the case of CSR, 20 mM caffeine was added. These control samples were each loaded over four wells per plate. Binding of [^3H]ryanodine (7.5 and 10 nM for CSR and HSR, respectively) was determined following a 3 h incubation at 37 °C and filtration through grade GF/B glass microfiber filters (Brandel Inc) using a Brandel Harvester. In 4 ml of Ecolite scintillation cocktail (MP biomedicals), [^3H]ryanodine retained on the filter was counted using a Beckman LS6000 scintillation counter."}},
  "note": "Read-outs that look alike come from different tables or passages of the source.",
  "data": [
    {"compound": "CC(=O)O[C@H]1C[C@@]2(C)[C@@H](C[C@@H](O)[C@H]3[C@@]4(C)CC[C@@H](O)[C@@H](C)[C@@H]4CC[C@@]32C)/C1=C(\\CCC=C(C)C)C(=O)O", "note": "[FA, (2Z)-2-[(3R,4S,5S,8S,9S,10S,11R,13R,14S,16S)-16-acetyloxy-3,11-dihydroxy-4,8,10,14-tetramethyl-2,3,4,5,6,7,9,11,12,13,15,16-dodecahydro-1H-cyclopenta[a]phenanthren-17-ylidene]-6-methylhept-5-enoic acid]", "values": [
      {"measurement": "[Ca2+]ER increase", "setting": "human RyR2; 5 μM FA", "value": "94 ± 17", "unit": "%"},
      {"measurement": "[Ca2+]ER decrease", "setting": "human RyR2; 10 μM FA", "value": "24 ± 8", "unit": "%"},
      {"measurement": "cardiomyocytes with arrhythmogenic Ca2+ events (total paired measures)", "setting": "[1]; FA across all concentrations tested (0.01–10 μM), 6 min", "value": "10 of 12"},
      {"measurement": "Ca2+ transient amplitudes", "setting": "[1]; even at very low [FA] (0.01 μM), pacing 1 Hz", "value": "some diminution"},
      {"measurement": "EC50", "setting": "RyR1; [Ca2+] 30 nM", "value": 0.01, "unit": "µM"},
      {"measurement": "EC50", "setting": "RyR1; [Ca2+], 30 µM", "value": 21.1, "unit": "µM"},
      {"measurement": "maximum inhibitory effect on [3H]ryanodine binding", "setting": "RyR1; skeletal SR, 30 nM Ca2+", "value": "~50", "unit": "%"},
      {"measurement": "effect on [3H]ryanodine binding to RyR1", "setting": "RyR1; skeletal SR, 30 μM Ca2+", "value": "strongly increased"}
    ]}
  ]
}
